Laboratory results taken from patent US20090047310A1, “Use of a griffonia extract, in particular griffonia simplicifolia, in a cosmetic or dermatological composition for mitigating pigmentation of skin and skin appendages” (priority 2005, published 2009).

Tested on: Normal human melanocytes
Assay: Melanogenesis: quantity of melaninic pigments in cultured normal human melanocytes
Type: cell-based
Settings: ten days culture
Method: Normal human melanocytes are cultured for ten days in the absence and in the presence of non-cytotoxic quantities of the dry extract. The quantity of melaninic pigments is evaluated by extraction using 0.5 N soda and optical density measurement.
The procedure is as before for the dry extract.
The procedure is as before for the dry extract using 5-HTP extracted from the seeds of Griffonia simplicifolia.

N[C@@H](Cc1c[nH]c2ccc(O)cc12)C(=O)O [5-HTP, 5-hydroxytryptophan]
quantity of melanin produced by the melanocytes, % of the control (0.0016 mg/ml, p less than 0.05): 93%
quantity of melanin produced by the melanocytes, % of the control (0.008 mg/ml, p less than 0.01): 89%
quantity of melanin produced by the melanocytes, % of the control (0.04 mg/ml, p less than 0.01): 80%
